Legend:
human Nav1.3 channels = biological target: T1, human Nav1.3 channels (Homo sapiens, UniProt Q9NY46); assay: FRET assay, human Nav1.3 (EFS on FDSS); assay type: cell-based; conditions: HEK293 cells expressing human Nav1.3, read-out: IC50 against Nav1.3
T1 construct: expressed in transfected cells; host or cells: HEK293
Procedure, shortened: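 HEK293 cells expressing the channel, loaded with 10 microM CC2-DMPE then 15 microM DiSBAC2(3) plus 0.555 mM VABSC-1 in pH 7.4 HEPES buffer at room temperature. Membrane potential changes evoked by electrical field stimulation after compound addition; IC50 from 440 nm-normalized FRET ratios.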

human Nav1.7 channels = biological target: T2, human Nav1.7 channels (Homo sapiens, UniProt Q15858); assay: FRET assay, human Nav1.7 (EFS on FDSS); assay type: cell-based; conditions: CHO cells expressing human Nav1.7, read-out: IC50 against Nav1.7
T2 construct: expressed in transfected cells; host or cells: CHO
T2 sequence (Q15858 whole entry): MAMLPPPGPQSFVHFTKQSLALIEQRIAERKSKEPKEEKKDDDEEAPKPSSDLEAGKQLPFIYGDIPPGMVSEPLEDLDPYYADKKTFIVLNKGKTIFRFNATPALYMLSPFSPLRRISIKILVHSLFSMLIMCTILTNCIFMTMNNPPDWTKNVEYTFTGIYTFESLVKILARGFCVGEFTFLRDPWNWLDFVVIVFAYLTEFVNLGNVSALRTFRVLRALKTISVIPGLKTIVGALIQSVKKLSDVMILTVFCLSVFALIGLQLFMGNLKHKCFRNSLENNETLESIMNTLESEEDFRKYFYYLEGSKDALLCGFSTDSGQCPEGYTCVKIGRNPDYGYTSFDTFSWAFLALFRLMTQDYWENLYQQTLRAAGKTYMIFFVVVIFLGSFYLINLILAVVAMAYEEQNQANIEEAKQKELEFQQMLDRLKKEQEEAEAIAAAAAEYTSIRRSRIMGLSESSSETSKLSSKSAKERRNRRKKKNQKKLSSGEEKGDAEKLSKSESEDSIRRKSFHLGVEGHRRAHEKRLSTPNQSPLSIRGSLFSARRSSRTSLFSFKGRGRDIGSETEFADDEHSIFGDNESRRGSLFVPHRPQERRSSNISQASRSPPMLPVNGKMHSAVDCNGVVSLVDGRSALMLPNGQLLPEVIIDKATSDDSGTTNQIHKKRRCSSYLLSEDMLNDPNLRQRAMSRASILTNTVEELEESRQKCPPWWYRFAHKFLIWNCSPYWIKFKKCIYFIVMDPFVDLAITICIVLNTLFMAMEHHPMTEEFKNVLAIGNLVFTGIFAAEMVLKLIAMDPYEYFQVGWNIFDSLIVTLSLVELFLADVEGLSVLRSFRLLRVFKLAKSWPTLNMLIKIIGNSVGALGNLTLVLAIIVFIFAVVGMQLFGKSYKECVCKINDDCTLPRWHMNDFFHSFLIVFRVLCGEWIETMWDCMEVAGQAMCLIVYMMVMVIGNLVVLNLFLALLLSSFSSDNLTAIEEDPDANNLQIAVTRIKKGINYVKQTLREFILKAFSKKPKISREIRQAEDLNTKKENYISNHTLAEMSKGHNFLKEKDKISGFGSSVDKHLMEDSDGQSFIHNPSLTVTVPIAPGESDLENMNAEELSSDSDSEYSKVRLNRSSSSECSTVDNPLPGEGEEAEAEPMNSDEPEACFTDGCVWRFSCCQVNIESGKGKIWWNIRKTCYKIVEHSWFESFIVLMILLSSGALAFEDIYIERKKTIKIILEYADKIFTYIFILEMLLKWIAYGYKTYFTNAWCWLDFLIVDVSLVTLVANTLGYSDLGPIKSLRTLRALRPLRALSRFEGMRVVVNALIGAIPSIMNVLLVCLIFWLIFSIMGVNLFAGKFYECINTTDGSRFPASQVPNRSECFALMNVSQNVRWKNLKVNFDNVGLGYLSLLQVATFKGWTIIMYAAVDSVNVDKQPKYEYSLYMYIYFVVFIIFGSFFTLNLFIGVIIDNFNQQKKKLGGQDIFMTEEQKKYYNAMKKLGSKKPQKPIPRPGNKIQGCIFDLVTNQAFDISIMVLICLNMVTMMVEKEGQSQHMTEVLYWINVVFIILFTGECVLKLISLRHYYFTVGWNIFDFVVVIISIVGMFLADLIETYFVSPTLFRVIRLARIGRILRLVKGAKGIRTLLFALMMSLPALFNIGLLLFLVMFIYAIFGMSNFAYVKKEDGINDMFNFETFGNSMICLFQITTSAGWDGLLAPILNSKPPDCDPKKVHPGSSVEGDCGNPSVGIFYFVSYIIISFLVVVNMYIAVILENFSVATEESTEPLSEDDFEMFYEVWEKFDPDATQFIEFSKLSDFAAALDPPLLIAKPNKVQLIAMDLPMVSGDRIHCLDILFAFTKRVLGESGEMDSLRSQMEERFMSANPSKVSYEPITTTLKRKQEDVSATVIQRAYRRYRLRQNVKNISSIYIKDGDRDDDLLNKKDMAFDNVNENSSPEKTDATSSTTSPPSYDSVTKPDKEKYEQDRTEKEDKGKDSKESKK
Procedure, shortened: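 CHO cells stably expressing the channel, loaded with CC2-DMPE (10 µM) then DiSBAC2(3) (15 µM) plus VABSC-1, in HEPES-buffered saline pH 7.4 at room temperature. Electrical field stimulation on FDSS; FRET ratio at 440 nm fitted for IC50.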

T1 sequence (Q9NY46 whole entry): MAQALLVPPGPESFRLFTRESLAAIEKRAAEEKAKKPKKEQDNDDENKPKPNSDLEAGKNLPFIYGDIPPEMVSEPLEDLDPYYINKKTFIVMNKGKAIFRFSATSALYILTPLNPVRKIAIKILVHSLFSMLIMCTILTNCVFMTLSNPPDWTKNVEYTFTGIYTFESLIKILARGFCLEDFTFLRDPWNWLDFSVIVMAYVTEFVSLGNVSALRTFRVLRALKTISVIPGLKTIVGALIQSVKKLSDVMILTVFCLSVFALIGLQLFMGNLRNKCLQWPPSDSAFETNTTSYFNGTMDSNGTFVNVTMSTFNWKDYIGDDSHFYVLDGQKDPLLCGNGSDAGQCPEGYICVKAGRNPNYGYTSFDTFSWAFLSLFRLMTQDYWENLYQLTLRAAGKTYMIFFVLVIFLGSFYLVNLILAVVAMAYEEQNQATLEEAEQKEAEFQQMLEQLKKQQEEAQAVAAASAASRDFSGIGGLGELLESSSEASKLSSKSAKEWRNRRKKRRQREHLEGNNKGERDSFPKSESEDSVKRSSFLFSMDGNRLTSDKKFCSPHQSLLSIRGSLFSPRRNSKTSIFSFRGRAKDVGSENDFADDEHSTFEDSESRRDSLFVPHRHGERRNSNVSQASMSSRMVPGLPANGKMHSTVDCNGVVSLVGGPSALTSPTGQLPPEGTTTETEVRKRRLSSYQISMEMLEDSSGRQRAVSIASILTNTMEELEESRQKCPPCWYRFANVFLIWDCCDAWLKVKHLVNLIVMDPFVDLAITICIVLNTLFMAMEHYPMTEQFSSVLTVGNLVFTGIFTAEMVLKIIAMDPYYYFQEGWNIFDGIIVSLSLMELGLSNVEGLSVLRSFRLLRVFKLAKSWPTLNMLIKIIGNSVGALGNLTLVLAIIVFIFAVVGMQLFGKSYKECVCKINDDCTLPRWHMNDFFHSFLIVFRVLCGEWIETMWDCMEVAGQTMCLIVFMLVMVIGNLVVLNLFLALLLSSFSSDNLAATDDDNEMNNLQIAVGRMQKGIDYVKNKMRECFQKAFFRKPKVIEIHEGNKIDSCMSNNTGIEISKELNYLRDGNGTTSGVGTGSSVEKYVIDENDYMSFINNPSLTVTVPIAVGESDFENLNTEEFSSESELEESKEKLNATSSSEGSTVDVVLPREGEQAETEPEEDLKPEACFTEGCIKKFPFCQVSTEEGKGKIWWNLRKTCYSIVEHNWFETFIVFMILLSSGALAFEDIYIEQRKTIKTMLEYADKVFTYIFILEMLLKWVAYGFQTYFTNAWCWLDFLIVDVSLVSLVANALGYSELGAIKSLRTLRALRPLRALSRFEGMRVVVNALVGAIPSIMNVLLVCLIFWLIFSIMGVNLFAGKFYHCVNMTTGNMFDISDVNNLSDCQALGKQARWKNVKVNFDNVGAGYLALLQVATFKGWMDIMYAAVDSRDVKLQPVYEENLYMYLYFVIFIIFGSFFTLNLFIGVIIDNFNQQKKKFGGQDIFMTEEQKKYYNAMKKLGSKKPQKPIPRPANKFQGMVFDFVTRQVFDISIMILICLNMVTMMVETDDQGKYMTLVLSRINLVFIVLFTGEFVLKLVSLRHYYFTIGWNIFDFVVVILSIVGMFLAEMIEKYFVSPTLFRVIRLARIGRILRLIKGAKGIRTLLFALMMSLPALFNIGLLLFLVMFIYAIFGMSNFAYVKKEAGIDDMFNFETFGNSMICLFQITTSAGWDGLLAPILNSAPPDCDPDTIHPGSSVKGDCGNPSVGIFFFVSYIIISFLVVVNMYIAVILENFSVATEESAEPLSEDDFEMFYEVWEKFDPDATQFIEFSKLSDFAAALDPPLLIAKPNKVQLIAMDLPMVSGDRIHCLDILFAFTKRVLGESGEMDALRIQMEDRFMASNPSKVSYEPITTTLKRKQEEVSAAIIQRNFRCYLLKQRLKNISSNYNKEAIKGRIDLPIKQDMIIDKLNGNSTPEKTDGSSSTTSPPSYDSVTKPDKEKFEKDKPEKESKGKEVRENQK

Cc1cc(CNC(=O)c2ccnc(NC(=O)C3CC3)n2)cnc1OCC(F)(F)C(F)F [Example 943, 2-(cyclopropanecarboxamido)-N-((5-methyl-6-(2,2,3,3-tetrafluoropropoxy)pyridin-3-yl)methyl)pyrimidine-4-carboxamide]
IC50 (human Nav1.3 channels): < 1 µM | IC50 (human Nav1.7 channels): < 1 µM

CC(=O)Nc1cc(C(=O)NCc2cnc(OCC(F)(F)C(F)F)c(C)c2)cc(C)n1 [Example 944, 2-acetamido-6-methyl-N-((5-methyl-6-(2,2,3,3-tetrafluoropropoxy)pyridin-3-yl)methyl)isonicotinamide]
IC50 (human Nav1.3 channels): < 1 µM | IC50 (human Nav1.7 channels): < 1 µM

Cc1cc(C(=O)NCc2cnc(OCC(F)(F)C(F)F)c(C)c2)cc(NC(=O)C(C)C)n1 [Example 945, 2-isobutyramido-6-methyl-N-((5-methyl-6-(2,2,3,3-tetrafluoropropoxy)pyridin-3-yl)methyl)isonicotinamide]
IC50 (human Nav1.3 channels): < 1 µM | IC50 (human Nav1.7 channels): < 1 µM

Cc1cc(C(=O)NCc2cnc(OCC(F)(F)C(F)F)c(C)c2)cc(NC(=O)C2CC2)n1 [Example 946, 2-(cyclopropanecarboxamido)-6-methyl-N-((5-methyl-6-(2,2,3,3-tetrafluoropropoxy)pyridin-3-yl)methyl)isonicotinamide]
IC50 (human Nav1.3 channels): < 1 µM | IC50 (human Nav1.7 channels): < 1 µM

Cc1cc(C(=O)NCc2cnc(OCC(F)(F)C(F)F)c(C)c2)nc(NC(=O)C2CC2)n1 [Example 947, 2-(cyclopropanecarboxamido)-6-methyl-N-((5-methyl-6-(2,2,3,3-tetrafluoropropoxy)pyridin-3-yl)methyl)pyrimidine-4-carboxamide]
IC50 (human Nav1.3 channels): < 1 µM | IC50 (human Nav1.7 channels): < 1 µM

Cc1cc(C(=O)NCc2cnc(OCC(F)(F)F)c(C)c2)cc(NC(=O)CC2CC2)n1 [Example 954, 2-(2-cyclopropylacetamido)-6-methyl-N-((5-methyl-6-(2,2,2-trifluoroethoxy)pyridin-3-yl)methyl)isonicotinamide]
IC50 (human Nav1.3 channels): < 1 µM | IC50 (human Nav1.7 channels): < 1 µM

Cc1cc(C(=O)NCc2cccc(OC(F)(F)F)c2)cc(NC(=O)CC2CC2)n1 [Example 962, 2-(2-cyclopropylacetamido)-6-methyl-N-(3-(trifluoromethoxy)benzyl)isonicotinamide]
IC50 (human Nav1.3 channels): < 1 µM | IC50 (human Nav1.7 channels): < 1 µM

Cc1cc(C(=O)NCc2cc(C(F)(F)F)ccc2F)cc(NC(=O)C2CC2)n1 [Example 975, 2-(cyclopropanecarboxamido)-N-(2-fluoro-5-(trifluoromethyl)benzyl)-6-methylisonicotinamide]
IC50 (human Nav1.3 channels): < 1 µM | IC50 (human Nav1.7 channels): < 1 µM
